Data on eight molecules can be found in patent publication US20100015603A1, “Chimeric proteins for measuring atp concentrations in pericellular space and related screening method” (priority 2005, published 2010).

Holding throughout (assay type): cell-based
The target in experiment [1] is T1, pmeLUC (Photinus pyralis, UniProt P08659, N119G/N50D).
T1 construct: expressed in transfected cells
Nature of the experiment: Response of HEK293-pmeLUC cells to extracellular nucleotides (affinity and selectivity of the pmeLUC probe, luminescence). As to conditions: for sensitivity of pmeLUC to other nucleotides: HEK293-pmeLUC cells, FIG. 2A. The procedure: (§1) ATP was measured in the custom-made luminometer described by Rizzuto and co-workers (Brini et al., 1999; Jouaville et al., 1999). For experiments, cells were plated onto 13 mm coverslips and were placed in a 37° C. thermostatted chamber (diameter 15 mm, height 2 mm) and perfused with a saline solution supplemented with luciferin at a concentration of 5 μM. The chamber was held in a photomultiplier kept in a dark refrigerated (4° C.) box. Light emission was detected by a Thorn EMI photon counting board installed in an IBM-compatible computer. The board allowed storing of the data in the computer memory for further analysis. During the experiments the thermostatted chamber was continuously perfused with buffer by means of a Gilson peristaltic pump. Alternatively, ATP was measured in the supernatants using soluble luciferase in a Firezyme luminometer as previously described (Baricordi et al., 1999; Solini et al, 2004; Zanovello et al., 1990).
Affinity of pmeLUC for ATP is rather low, with a threshold of about 10 μM, however, subsequent ATP additions elicit further increases in light emission that allow building a calibration curve (FIG. 2B). Importantly, pmeLUC is insensitive to all other nucleotides tested (ADP, UTP, UDP and GTP) (FIG. 2A).

In experiment [2] the target is T2, rat P2X7R (Rattus norvegicus, UniProt Q64663).
T2 construct: expressed in transfected cells; host or cells: HEK293 (HEK293-rP2X7/pmeLUC)
T2 sequence (Q64663 1-595): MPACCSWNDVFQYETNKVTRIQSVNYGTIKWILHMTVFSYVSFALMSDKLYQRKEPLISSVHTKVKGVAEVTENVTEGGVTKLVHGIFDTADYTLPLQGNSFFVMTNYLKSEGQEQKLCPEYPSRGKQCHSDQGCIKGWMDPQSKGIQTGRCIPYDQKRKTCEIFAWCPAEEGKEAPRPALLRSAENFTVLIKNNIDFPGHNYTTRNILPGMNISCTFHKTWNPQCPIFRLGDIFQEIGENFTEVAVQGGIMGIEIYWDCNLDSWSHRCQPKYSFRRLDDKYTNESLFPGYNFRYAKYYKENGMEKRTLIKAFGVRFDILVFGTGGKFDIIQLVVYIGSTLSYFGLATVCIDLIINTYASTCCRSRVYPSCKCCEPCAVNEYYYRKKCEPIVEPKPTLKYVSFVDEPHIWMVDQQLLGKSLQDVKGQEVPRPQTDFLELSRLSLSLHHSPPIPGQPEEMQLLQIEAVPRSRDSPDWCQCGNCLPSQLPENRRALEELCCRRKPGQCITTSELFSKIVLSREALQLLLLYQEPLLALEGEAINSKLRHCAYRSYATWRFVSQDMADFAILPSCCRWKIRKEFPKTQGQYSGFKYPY
Nature of the experiment: ATP release through the P2X7 receptor in HEK293-rP2X7/pmeLUC cells, pmeLUC luminescence. The method, then:
(§2) HEK293 cells were cultured in DMEM-F12 (Sigma-Aldrich). Media were supplemented with 10% heat-inactivated FBS, 100 U/ml penicillin and 100 μg/ml streptomycin (Invitrogen corporation, San Giuliano Milanese, Italy). ACN neuroblastoma cells were cultured in DMEM supplemented with MEM non-essential amino acid solution 100× (Sigma-Aldrich). HEK293 cells were transfected with the calcium phosphate method. Cells transiently expressing the pmeLUC construct were assayed 36 hours after transfection. Clones stably expressing pmeLUC or the P2X7R were generated by culture of the transfected cells in the presence of G418 (0.8 mg/ml, added 48 hours after transfection) for 3 weeks. Stable P2X7- or pmeLUC-expressing clones were kept in the continuous presence of 0.2 mg/ml of G418 sulphate (Geneticin) (Calbiochem, la Jolla, Calif.). ACN cells were transfected with pmeLUC by lipofectamine (Invitrogen) and tested 24 hours after transfection. Briefly, cells were incubated in 250 μl serum-free transfection medium (OPTIMEM) in the presence of lipofectamine-plus-DNA (0.4 μg per well). After 3 hours incubation 1 ml of DMEM plus 10% FBS supplemented with MEM non-essential amino acid solution 100× (Sigma-Aldrich) was added. Cells were assayed 24 hours after transfection. In order to allow a high level of plasma membrane expression of the transfected constructs, cells were incubated overnight in the presence of 1 mM DTT (Mezghrani et al, 2001). Furthermore, they were also kept at room temperature (21° C.) for two hours prior to transfer into the thermostated luminometer chamber.
ATP was measured in the custom-made luminometer described by Rizzuto and co-workers (Brini et al., 1999; Jouaville et al., 1999). […] Light emission was detected by a Thorn EMI photon counting board installed in an IBM-compatible computer. […] Alternatively, ATP was measured in the supernatants using soluble luciferase in a Firezyme luminometer as previously described (Baricordi et al., 1999; Solini et al, 2004; Zanovello et al., 1990). […]

Experiment [3] deals with T3, human P2X7R (Homo sapiens, UniProt Q99572).
T3 construct: expressed in transfected cells; host or cells: HEK293 (HEK293-hP2X7/pmeLUC)
T3 sequence (Q99572 1-595): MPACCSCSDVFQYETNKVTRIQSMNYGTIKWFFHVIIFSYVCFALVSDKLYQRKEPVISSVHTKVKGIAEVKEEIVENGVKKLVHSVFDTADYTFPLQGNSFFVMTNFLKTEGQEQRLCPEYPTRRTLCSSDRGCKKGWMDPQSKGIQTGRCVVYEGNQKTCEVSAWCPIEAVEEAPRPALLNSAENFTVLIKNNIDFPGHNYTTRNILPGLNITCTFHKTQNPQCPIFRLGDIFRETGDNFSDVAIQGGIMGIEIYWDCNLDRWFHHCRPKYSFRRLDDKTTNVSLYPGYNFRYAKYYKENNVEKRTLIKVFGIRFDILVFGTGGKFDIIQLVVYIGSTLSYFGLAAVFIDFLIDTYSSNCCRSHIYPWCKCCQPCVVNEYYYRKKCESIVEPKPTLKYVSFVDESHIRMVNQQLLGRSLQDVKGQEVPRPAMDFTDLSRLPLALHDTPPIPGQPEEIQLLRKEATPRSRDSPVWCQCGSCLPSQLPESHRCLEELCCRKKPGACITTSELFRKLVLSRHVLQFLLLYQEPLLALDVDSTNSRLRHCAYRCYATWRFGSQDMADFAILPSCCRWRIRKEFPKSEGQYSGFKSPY
Nature of the experiment: ATP release through the P2X7 receptor in HEK293-hP2X7/pmeLUC cells, pmeLUC luminescence. The method, then:
as §2, §1
Early experiments carried out not only by the authors of the present invention had shown that supernatants from cells expressing the P2X7 receptor contained a high level of ATP, which was not due to an accelerated rate of cell lysis (Baricordi et al., 1999; Adinolfi et al., 2003; Solini et al., 2004). […] To test such hypothesis several HEK293 clones were generated stably transfected with the human or rat P2X7R (HEK293-hP2X7 or HEK293-rP2X7, respectively). These clones were then transfected with pmeLUC (HEK293-P2X7/pmeLUC).

In experiment [4] the target is T4, native P2X7R (Homo sapiens, UniProt Q99572).
T4 construct: the human ACN neuroblastoma, a cell line expressing the native P2X7R; endogenous in cells; host or cells: ACN human neuroblastoma cells, transiently transfected with pmeLUC as sensor
T4 sequence (Q99572 1-595): T3 sequence (Q99572 1-595)
The experiment can be described thus: ATP release from ACN neuroblastoma cells transfected with pmeLUC. The method, then: HEK293 cells were cultured in DMEM-F12 (Sigma-Aldrich). Media were supplemented with 10% heat-inactivated FBS, 100 U/ml penicillin and 100 μg/ml streptomycin (Invitrogen corporation, San Giuliano Milanese, Italy). ACN neuroblastoma cells were cultured in DMEM supplemented with MEM non-essential amino acid solution 100× (Sigma-Aldrich). HEK293 cells were transfected with the calcium phosphate method. Cells transiently expressing the pmeLUC construct were assayed 36 hours after transfection. Clones stably expressing pmeLUC or the P2X7R were generated by culture of the transfected cells in the presence of G418 (0.8 mg/ml, added 48 hours after transfection) for 3 weeks. Stable P2X7- or pmeLUC-expressing clones were kept in the continuous presence of 0.2 mg/ml of G418 sulphate (Geneticin) (Calbiochem, la Jolla, Calif.). ACN cells were transfected with pmeLUC by lipofectamine (Invitrogen) and tested 24 hours after transfection. […]
(§3) ATP was measured in the custom-made luminometer described by Rizzuto and co-workers (Brini et al., 1999; Jouaville et al., 1999). […] Light emission was detected by a Thorn EMI photon counting board installed in an IBM-compatible computer. […] Alternatively, ATP was measured in the supernatants using soluble luciferase in a Firezyme luminometer as previously described (Baricordi et al., 1999; Solini et al, 2004; Zanovello et al., 1990).
Differences in basal levels of luminescence emission are neutralized by expressing luminescence as percentage increase over basal (FIG. 3B), however, the higher basal luminescence of HEK293-hP2X7/pmeLUC might reflect a real increased level of pericellular ATP compared to HEK293-pmeLUC, rather than a higher expression of pmeLUC. In this case, reporting luminescence as percent increase over basal would mask such a difference in the extracellular ATP concentration. To clarify this issue, total pmeLUC protein was measured by western blotting (FIG. 3C). […] To measure quantitatively surface pmeLUC expression, different clones were analyzed by FACS. […]

The test system of experiment [5] is HEK293-mock cells. Nature of the experiment: Extracellular ATP in supernatants of HEK293-mock cells, soluble luciferase. The procedure: as §1
(§4) As an independent proof that HEK293-P2X7 cells release a larger amount of ATP than mock-transfected HEK293 (HEK293-mock), extracellular ATP was measured in the supernatants using soluble luciferase. Quiescent HEK293-mock cells maintained an extracellular ATP concentration of 80±20 nM (n=12), compared to 220±34 nM (n=10) for HEK-hP2X7. […]

The test system of experiment [6] is HEK293-pmeLUC cells. The settings on record: for ATP release triggered by agonists of G protein-coupled receptors: HEK293-pmeLUC cells, not shown. The method, then:
as §2, §3

In experiment [7] the test system is HEK293-hP2X7 cells. The experiment can be described thus: Extracellular ATP in supernatants of HEK293-hP2X7 cells, soluble luciferase. As to conditions: n=10, quiescent 220±34 nM. The method, then: as §1, §4

T1 sequence (P08659 with tags, fused parts or gaps N50D/N119G): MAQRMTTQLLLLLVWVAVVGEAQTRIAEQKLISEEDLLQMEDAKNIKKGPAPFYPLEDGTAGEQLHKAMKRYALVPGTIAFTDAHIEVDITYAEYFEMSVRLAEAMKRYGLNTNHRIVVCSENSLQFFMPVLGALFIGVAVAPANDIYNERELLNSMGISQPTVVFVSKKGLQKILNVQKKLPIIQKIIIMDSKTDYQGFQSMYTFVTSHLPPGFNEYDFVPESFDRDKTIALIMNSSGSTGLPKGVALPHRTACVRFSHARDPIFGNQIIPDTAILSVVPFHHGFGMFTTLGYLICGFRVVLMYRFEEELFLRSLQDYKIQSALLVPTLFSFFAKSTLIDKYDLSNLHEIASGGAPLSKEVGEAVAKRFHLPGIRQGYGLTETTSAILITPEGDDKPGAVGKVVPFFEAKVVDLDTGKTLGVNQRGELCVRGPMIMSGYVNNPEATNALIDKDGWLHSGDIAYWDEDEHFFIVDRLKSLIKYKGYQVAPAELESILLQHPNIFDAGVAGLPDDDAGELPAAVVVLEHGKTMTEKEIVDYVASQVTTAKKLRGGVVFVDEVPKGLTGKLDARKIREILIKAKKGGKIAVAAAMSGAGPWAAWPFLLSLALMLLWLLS

`O=c1ccn([C@@H]2O[C@H](COP(=O)(O)OP(=O)(O)OP(=O)(O)O)[C@@H](O)[C@H]2O)c(=O)[nH]1` [UTP]: the “sensitivity of pmeLUC to other nucleotides” value (from here on “sensitivity of pmeLUC”) in experiment [1] is “insensitive”.
Take `Nc1ncnc2c1ncn2[C@@H](C=O)O[C@@H](C=O)COP(=O)(O)OP(=O)(O)OP(=O)(O)O` [oATP, oxidized ATP]: the “ATP-induced luminescence increase in oATP-treated cells” value was “matches exactly that of HEK293-pmeLUC” in experiment [2] (HEK293-rP2X7/pmeLUC, pre-treatment with oATP, FIG. 4A) and “matches exactly that of HEK293-pmeLUC” in experiment [3] (HEK293-hP2X7/pmeLUC, pre-treatment with oATP, FIG. 4B). The “basal luminescence after oATP pretreatment” value in experiment [3] (HEK293-hP2X7/pmeLUC, n=8, untreated 12250±1500 cps) is reported as 5800±1300 cps. Also, the “block of the BzATP-triggered luminescence increase” value in experiment [3] (pre-treatment with 300 μM oATP for 2 hours, HEK293-hP2X7/pmeLUC) is “fully blocked”. Also, the “block of BzATP-induced ATP release” value in experiment [4] (ACN cells, 300 μM oATP) is given as “fully blocked”. Further, the “basal luminescence total level after treatment with oATP” value in experiment [4] (ACN cells, n=5, before treatment 3500±350 cps) came out at 1500±260 cps. Moreover, in experiment [1] (calibration curve in presence and absence of oATP, not shown), the “effect on ATP-dependent luminescence increase (calibration curve; inhibition of luciferase itself)” value was “not affected”.
With `Nc1nc2c(ncn2[C@@H]2O[C@H](COP(=O)(O)OP(=O)(O)OP(=O)(O)O)[C@@H](O)[C@H]2O)c(=O)[nH]1` [GTP], the “sensitivity of pmeLUC” value in experiment [1] is “insensitive”.
With `Nc1ncnc2c1ncn2[C@@H]1O[C@H](COP(=O)(O)OP(=O)(O)OP(=O)(O)O)[C@@H](OC(=O)c2ccc(C(=O)c3ccccc3)cc2)[C@H]1O` [BzATP, Benzoyl ATP], the “luminescence increase on addition of BzATP” value is given as “large luminescence increase” in experiment [2] (HEK293-rP2X7/pmeLUC cells (not shown)), “not” in experiment [6] (HEK293-pmeLUC cells (no P2X7R)) and “large luminescence increase” in experiment [3] (HEK293-hP2X7/pmeLUC cells). Also, in experiment [5], the “effect of BzATP on extracellular ATP in supernatants” value is recorded as “no effect”. Further, in experiment [3] (HEK293-hP2X7/pmeLUC cells), the “peak ATP concentration from calibration of BzATP triggered luminescence increase” value was “about 250 μM”. Also, the “ATP release induced by BzATP” value in experiment [4] (ACN neuroblastoma cells, FIG. 3E) is reported as “large ATP release”. For the same molecule, the “extracellular ATP level in supernatants after addition of BzATP” value in experiment [7] is on record as “about 400±55 nM”.
`O=c1ccn([C@@H]2O[C@H](COP(=O)(O)OP(=O)(O)O)[C@@H](O)[C@H]2O)c(=O)[nH]1` [UDP]: in experiment [1], the “sensitivity of pmeLUC” value was “insensitive”.
In the case of `C[N+](C)(C)CCOC(N)=O` [carbachol], the “ATP release triggered by agonists of G protein-coupled receptors” value in experiment [6] is given as “negligible ATP release”.
Still for that read-out and setting: in the case of `NCCc1c[nH]cn1` [histamine] it was “negligible ATP release”.
Turning to `Nc1ncnc2c1ncn2[C@@H]1O[C@H](COP(=O)(O)OP(=O)(O)O)[C@@H](O)[C@H]1O` [ADP], the “sensitivity of pmeLUC” value in experiment [1] is reported as “insensitive”.
